≈ marks a conversion by molar mass, not a printed value. Peptide text beside a SMILES is read from it. * marks the point of attachment. FITC = O=C1OC2(c3ccc(O)cc3Oc3cc(O)ccc32)c2ccc(NC(=S)*)cc21
Legend:
Type in all cases: cell-based, Escherichia coli
E. coli O157:H7 [1] = test: Flow cytometry of bacteria treated with FITC peptides (uptake) and propidium iodide; settings: for cells positive for FITC (peptide uptake): E. coli O157:H7, FITC-labeled peptide at MIC, flow cytometry; for PI-positive cells (membrane permeabilization): E. coli O157:H7, peptide at MIC, N = 4
Experimental: Using a double staining technique with propidium iodide (PI) and FITC peptides, killing rate and peptide uptake were evaluated in a two-dimensional analysis. Briefly, end-exponential growth phase E. coli O157 cells (10^8 CFU/mL) were washed with PBS and treated with peptides (P2 or Pro2/ FITC labeled) at MIC value for different time periods. Treated bacteria were again washed with PBS buffer three times. One microliter of PI (Invitrogen) was added to the bacteria, and after incubation for 5 min, the mixture was aliquoted (500 µL) into FACS tubes. To correlate the activity of the peptides with cell death, the fluorescence intensity was measured in two channels using the Gallios^TM Flow Cytometer, PI: excitation 536 nm and emission 617 nm, FITC: excitation 490 nm and emission 525 nm. Heated bacteria at 90 °C for 10 min were used as PI-positive control.

E. coli O157 = settings: HPLC-purified peptide
Text: In order to investigate whether APR redundancy does result in proteostatic collapse, we selected resynthesized and high-performance liquid chromatography (HPLC)-purified four positive peptides from the screen, P2, P5, P14, and P105, as well as three negative peptides, P3, P4, and P11, and confirmed their MIC and minimum bactericidal concentration (MBC) values (Table 1). […] These IBs, which are also called large polar aggregates, could be stained with pentameric formyl thiophene acetic acid (pFTAA, Fig. 1j and supplementary Fig. 3), an extensively characterized amyloid-specific dye[20]–[22], which specifically binds to amyloid-like aggregates as well as disease-associated protein IBs[22]. This IB-staining pattern could be observed for all bactericidal peptides, but not for any of the other peptides, although some other pFTAA-positive structures could be discerned (Supplementary Fig. 3). We confirmed the cross-β-structure content of IB using thioflavin-T staining and correlative atomic force microscopy nanoimaging and Fourier transform infrared spectroscopy (Supplementary Note 2 and Supplementary Fig. 4).

E. coli O157:H7 [2] = settings: E. coli O157(:H7); HPLC-purified peptide; broth microdilution (EUCAST), LB, overnight 37 °C, OD 590 nm
Experimental: The MICs of active peptides were determined via the Broth microdilution assay according to the EUCAST guideline, which was performed in 96-well polystyrene flat bottom microtiter plates (BD Biosciences). Briefly, a single colony was inoculated into 5 mL LB medium and grown to the end-exponential growth phase in a shaking incubator at 37 °C. Cultures were subsequently diluted to an OD600 (optical density) of 0.002 ([…]) in fresh LB medium. One hundred microliters of LB medium with different concentration of peptides ranging from 100 to 0.75 µg/mL were serially diluted to the sterile 96-well plate (at least three wells in each plate). Afterwards, 100 µL of the diluted bacteria were pipetted into 96-well plates containing different concentration of peptides. In each plate, the grown bacteria with the maximum concentration of carrier and medium were considered as positive and negative controls, respectively. Thereafter, 96-well plates were statically incubated overnight at 37 °C to allow bacterial growth. OD was measured at 590 nm for 1 s using a multipurpose ultraviolet–visible plate reader, and the absorbance of the growth bacteria was measured using a Perkin Elmer spectrophotometer (1420 Multilabel Counter Victor 3).

| SMILES | cells positive for FITC (peptide uptake) (E. coli O157:H7 [1]; after 15 min, N = 4, mean and s.d.) [%] | cells positive for FITC (peptide uptake) (E. coli O157:H7 [1]; after 1 h and beyond) [%] | PI-positive cells (membrane permeabilization) (E. coli O157:H7 [1]; after 15 min) [%] | PI-positive cells (membrane permeabilization) (E. coli O157:H7 [1]; after 3 h) [%] | MBC (E. coli O157) [µg/mL] | MIC (E. coli O157:H7 [2]) [µg/mL] |
| --- | --- | --- | --- | --- | --- | --- |
| CC(C)C[C@H](NC(=O)CNC(=O)[C@H](CCCNC(=N)N)NC(=O)[C@@H]1CCCN1C(=O)[C@H](CCCNC(=N)N)NC(=O)[C@H](CCCNC(=N)N)NC(=O)[C@@H](NC(=O)[C@H](CC(C)C)NC(=O)[C@H](C)NC(=O)[C@H](CC(C)C)NC(=O)CNC(=O)[C@H](CC(C)C)NC(=O)CNC(=O)[C@H](CCCNC(=N)N)NC(=S)Nc1ccc2c(c1)C(=O)OC21c2ccc(O)cc2Oc2cc(O)ccc21)C(C)C)C(=O)NCC(=O)N[C@@H](CC(C)C)C(=O)N[C@@H](C)C(=O)N[C@@H](CC(C)C)C(=O)N[C@H](C(=O)N[C@@H](CCCNC(=N)N)C(=O)N[C@@H](CCCNC(=N)N)C(=O)O)C(C)C [FITC-P2] ({FITC}-RGLGLALVRRPRGLGLALVRR-OH; N-terminus and C-terminus assumed) | 97.7 ± 2.9 | ~100 | 2.1 ± 1.3 | 85 ± 13.2 |  |  |
| CC(C)C[C@H](NC(=O)CNC(=O)[C@H](CCCNC(=N)N)NC(=O)[C@@H]1CCCN1C(=O)[C@H](CCCNC(=N)N)NC(=O)[C@H](CCCNC(=N)N)NC(=O)[C@@H]1CCCN1C(=O)[C@H](CC(C)C)NC(=O)[C@H](C)NC(=O)[C@@H]1CCCN1C(=O)CNC(=O)[C@H](CC(C)C)NC(=O)CNC(=O)[C@@H](N)CCCNC(=N)N)C(=O)NCC(=O)N1CCC[C@H]1C(=O)N[C@@H](C)C(=O)N[C@@H](CC(C)C)C(=O)N1CCC[C@H]1C(=O)N[C@@H](CCCNC(=N)N)C(=O)N[C@@H](CCCNC(=N)N)C(=O)O [P2Pro] (H-RGLGPALPRRPRGLGPALPRR-OH) |  |  |  |  | >100 |  |
| CC(C)C[C@H](NC(=O)[C@H](C)NC(=O)[C@H](CCCNC(=N)N)NC(=O)[C@@H]1CCCN1C(=O)[C@H](CCCNC(=N)N)NC(=O)[C@H](CCCNC(=N)N)NC(=O)[C@H](CC(C)C)NC(=O)[C@H](CC(C)C)NC(=O)[C@@H](NC(=O)[C@@H](NC(=O)[C@H](CC(C)C)NC(=O)[C@H](CC(C)C)NC(=O)[C@H](C)NC(=O)[C@H](CCCNC(=N)N)NC(=O)[C@@H](N)CCCNC(=N)N)[C@@H](C)O)[C@@H](C)O)C(=O)N[C@@H](CC(C)C)C(=O)N[C@H](C(=O)N[C@H](C(=O)N[C@@H](CC(C)C)C(=O)N[C@@H](CC(C)C)C(=O)N[C@@H](CCCNC(=N)N)C(=O)N[C@@H](CCCNC(=N)N)C(=O)O)[C@@H](C)O)[C@@H](C)O [P5R] (H-RRALLTTLLRRPRALLTTLLRR-OH) |  |  |  |  | 12 (≈ 4.51 µM) | 12 (≈ 4.51 µM) |
| CC(C)C[C@H](NC(=O)[C@H](C)NC(=O)[C@H](CCCNC(=N)N)NC(=O)[C@@H]1CCCN1C(=O)[C@H](CCCNC(=N)N)NC(=O)[C@H](CCCNC(=N)N)NC(=O)[C@H](CC(C)C)NC(=O)[C@H](CC(C)C)NC(=O)[C@@H](NC(=O)[C@@H](NC(=O)[C@H](CC(C)C)NC(=O)[C@H](CC(C)C)NC(=O)[C@H](C)NC(=O)[C@@H](N)CCCNC(=N)N)[C@@H](C)O)[C@@H](C)O)C(=O)N[C@@H](CC(C)C)C(=O)N[C@H](C(=O)N[C@H](C(=O)N[C@@H](CC(C)C)C(=O)N[C@@H](CC(C)C)C(=O)N[C@@H](CCCNC(=N)N)C(=O)N[C@@H](CCCNC(=N)N)C(=O)O)[C@@H](C)O)[C@@H](C)O [P5] (H-RALLTTLLRRPRALLTTLLRR-OH) |  |  |  |  | 6 (≈ 2.4 µM) | 6 (≈ 2.4 µM) |
| CC(C)C[C@H](NC(=O)CNC(=O)[C@H](CCCNC(=N)N)NC(=O)[C@@H]1CCCN1C(=O)[C@H](CCCNC(=N)N)NC(=O)[C@H](CCCNC(=N)N)NC(=O)[C@H](C)NC(=O)[C@H](CC(C)C)NC(=O)[C@H](CC(C)C)NC(=O)[C@H](C)NC(=O)[C@H](CC(C)C)NC(=O)[C@H](CC(C)C)NC(=O)CNC(=O)[C@@H](N)CCCNC(=N)N)C(=O)N[C@@H](CC(C)C)C(=O)N[C@@H](C)C(=O)N[C@@H](CC(C)C)C(=O)N[C@@H](CC(C)C)C(=O)N[C@@H](C)C(=O)N[C@@H](CCCNC(=N)N)C(=O)N[C@@H](CCCNC(=N)N)C(=O)O [P14] (H-RGLLALLARRPRGLLALLARR-OH) |  |  |  |  | 6 (≈ 2.55 µM) | 6 (≈ 2.55 µM) |
| CC(C)C[C@H](NC(=O)[C@H](C)NC(=O)[C@@H](N)CCCNC(=N)N)C(=O)N[C@@H](CC(C)C)C(=O)N[C@@H](CCCNC(=N)N)C(=O)N[C@H](C(=O)N[C@@H](CC(C)C)C(=O)N[C@@H](CC(C)C)C(=O)N[C@@H](CCCNC(=N)N)C(=O)N[C@@H](CCCNC(=N)N)C(=O)N1CCC[C@H]1C(=O)N[C@@H](CCCNC(=N)N)C(=O)N[C@@H](C)C(=O)N[C@@H](CC(C)C)C(=O)N[C@@H](CC(C)C)C(=O)N[C@H](C(=O)N[C@H](C(=O)N[C@@H](CC(C)C)C(=O)N[C@@H](CC(C)C)C(=O)N[C@@H](CCCNC(=N)N)C(=O)N[C@@H](CCCNC(=N)N)C(=O)O)[C@@H](C)O)[C@@H](C)O)[C@@H](C)O [P105] (H-RALLRTLLRRPRALLTTLLRR-OH) |  |  |  |  | 12 (≈ 4.69 µM) | 12 (≈ 4.69 µM) |
